Key:
U251 neuroglioma cells = assay: Lentiviral overexpression of 45aa-uORF in U251 cells: cell cycle, CCK-8 growth curve, clone formation assay, soft agar; format: cell-based; details: stably overexpressed via lentivirus vector vs U251-GFP control cells
Experimental: A vector for overexpressed 45aa-uORF-GFP (the skeleton of the vector is pCDH-CMV-MCS-EF1-Puro) was constructed and then used to transfect into HEK-293T cells together with lentivirus skeleton vectors PSPAX2, PMD2G in a ratio of 1:3:1 to package the lentivirus. The medium supernatants with the lentivirus were collected at 48 hours and 72 hours, respectively, and then used to infect U251 cells (added with 8 μg/ml polybrene to improve the infection efficiency). Puromycin ([…]) was employed for screening and removed three days later, and then the cells were proliferated normally. […]
1.5 Million U251 glioma cells of lentivirus overexpressed 45aa-uORF were inoculated into a T25 culture flask. […] Then, after being centrifuged and washed with PBS once, the precipitate was resuspended in 25 μg/mL Propidium Iodide (PI, sigma)/PBS solution, stained for 30 minutes away from light, and then detected on cell-cycle distribution thereof.
U251-GFP control cells or U251-45aa-uORF-GFP cells were inoculated into a 96-well plate in a quantity of 2000 cells per well. […] After cell adherence to the wall, the CCK-8 (Dojindo, CK04) reagent was added by 10 μL per well every 24 hours for culture at 37° C. for 1-4 hours, and then the absorbance (OD) of […] was detected. The absorbance value was directly proportional to the number of cells. […]

[1] = test system: U251 neuroglioma transplanted tumors; assay: U251 tumor subcutaneously implanted in nude mice, intratumoral peptide injection; format: in vivo; details: 25 μg/tumor every other day, 5-6 medications, vs control polypeptide of shuffled sequence
Experimental: In one aspect, the anti-tumor ability of the 45aa-uORF coded micropeptide is verified in vivo by animal experiments in the present invention. Mice are subcutaneously inoculated with 2 million U251 neuroglioma cells. Thirty days later, transplanted tumors are treated with the chemically synthesized 45aa-uORF coded micropeptide (25 ug/tumor) every other day.
U251 cells were inoculated to the left and right sides of nude mice by 2 million at each point. Thirty days later, the formation of tumors was observed, and the tumors were averagely divided into a control group and an experimental group by size (five nude mice and ten tumors in each group). The control group was injected with a control polypeptide every other day, and the experimental group was injected with the 45aa-uORF polypeptide every other day. Each tumor was injected with 25 μg synthetic peptide. The long diameters and short diameters of the tumors were measured before the medication, and after 5-6 times medications, the nude mice were sacrificed, and tumors were taken out, photographed and weighed. Tumor volume=½*long diameter*the square of short diameter

U251 cells [2] = assay: Cell viability with CCK-8 after adding chemically synthesized polypeptide; format: cell-based; details: 25 μM, washed out after 4 hours, culture for 72 hours
U251 cells [3] = assay: Ability of FITC-labelled micropeptide to enter cells (fluorescence microscopy); format: cell-based; details: FITC-attached micropeptide, 20 μM, 4 hours
Experimental: U251 cells were inoculated onto a glass slide at the density of 50%, and different concentrations of PTEN-45aa micropeptide t attached with FITC fluorescent groups (the micropeptide was dissolved in DMSO with a concentration being 20 μg/μL) were added to treat cells for 4 hours, then fixed with Faure Marin, and observed and photographed under a fluorescence microscope.

[4] = listed as 45aa-uORF coded polypeptide

Sequence: MRDGGGRGPEPLSAPVSSRGGSALGEPAGLRRRQRRRFSPPLRLF (listed as Homo sapiens) [PTEN-45aa, oligopeptide of 45 amino acids coded by the 45aa-uORF in the 5′UTR of human PTEN gene]
- growth and proliferation of U251 glioma cells (U251 neuroglioma cells): significantly suppress the growth and proliferation
- clone formation of U251 neuroglioma cells (CFA, soft agar) (U251 neuroglioma cells; two weeks): significantly suppress the growth, proliferation and clone formation
- growth and formation of U251 transplanted tumors [1]: significantly suppress the growth and formation of the tumors
- growth and proliferation of glioma cells (cell viability, CCK-8) (U251 cells [2]; listed as 45aa-uORF coded micropeptide): significantly suppress the growth and proliferation
- growth and proliferation of glioma cells (cell viability, CCK-8) (U251 cells [2]; [4]): significantly suppress the growth of glioma cells
- ability of the micropeptide to enter cells (U251 cells [3]; [4]): can enter U251 cells
- ability of the micropeptide to enter cells (U251 cells [3]; listed as PTEN-45aa micropeptide): could enter the U251 cells smoothly
